Bridge positions count the residues as written; N and C are the ends. Square brackets hold non-standard residues; d marks the D form. Peptide text beside a SMILES is read from it. Phe(4-F) = N[C@@H](Cc1ccc(F)cc1)C(=O)O; 2Nal = N[C@@H](Cc1ccc2ccccc2c1)C(=O)O; Cit = NC(=O)NCCC[C@H](N)C(=O)O
Columns and labels:
[1] = tested on: human red blood cells (hRBC); test: Hemolysis; format: cell-based
Method in brief: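 Percent lysis taken as OD540 of peptide-treated sample over OD540 of the water/0.1% Triton X-100 full-lysis control, with PBS giving 0%. Peptides at 100 μM exposed to PBS-washed human RBCs (20% v/v) for 1 hour at 37° C. before centrifugation and 20-fold dilution of supernatant.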

in vitro = conditions: human
CXCR4 = CXCR4 (Homo sapiens, UniProt P61073); test: Ca2+-assay method 2 (Flexstation, SDF-1 induced calcium mobilization); format: cell-based; design: expressed in transfected cells; host or cells: mouse pre-B cell line 300-19; conditions: method 2 (Ex. 54-160), mouse pre-B cell line 300-19 with human CXCR4, 10 nM SDF-1; read-out: IC50 (nM) Ca^2+ assay
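For GI50 in this document: MTT reduction read as absorbance at 595 nm, blank-corrected and expressed as percent growth relative to the time-zero cell reading, triplicate wells per concentration.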

CXCR4, sequence (P61073 whole entry): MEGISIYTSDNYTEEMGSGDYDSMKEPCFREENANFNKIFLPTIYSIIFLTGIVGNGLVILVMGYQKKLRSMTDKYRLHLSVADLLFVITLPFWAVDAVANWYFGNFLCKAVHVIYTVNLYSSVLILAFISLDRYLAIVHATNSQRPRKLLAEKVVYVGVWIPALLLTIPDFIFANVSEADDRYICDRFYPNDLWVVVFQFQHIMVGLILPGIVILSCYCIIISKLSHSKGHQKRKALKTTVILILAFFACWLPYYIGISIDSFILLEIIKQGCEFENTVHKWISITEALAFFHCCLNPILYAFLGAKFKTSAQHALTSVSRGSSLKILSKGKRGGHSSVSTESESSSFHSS

| SMILES | Hemolysis at 100 μM [1] [%] | GI50 at 48 h (in vitro) [nM] | IC50 (CXCR4) [nM] |
| --- | --- | --- | --- |
| N=C(N)NCCC[C@@H]1NC(=O)[C@@H]2CSSC[C@H](NC(=O)[C@H](Cc3ccc4ccccc4c3)NC(=O)[C@H](CCCNC(=N)N)NC(=O)[C@H](CCCNC(=N)N)NC(=O)[C@H]3CCCN3C(=O)CNC1=O)C(=O)N[C@@H](Cc1ccc(O)cc1)C(=O)N[C@@H](CCC(N)=O)C(=O)N[C@@H](CCCCN)C(=O)N1CCC[C@@H]1C(=O)N1CCC[C@H]1C(=O)N[C@@H](CC(=O)O)C(=O)N[C@@H](CCCNC(=N)N)C(=O)N[C@@H](CCCNC(N)=O)C(=O)N2 [Ex. 88] (cyclo(DR[Cit]CRG[dP]RR[2Nal]CYQK[dP]P); disulfide 4-11) | 0 | 44000 | 2.5 |
| N=C(N)NCCC[C@@H]1NC(=O)[C@@H]2CSSC[C@H](NC(=O)[C@H](Cc3ccc4ccccc4c3)NC(=O)[C@H](CCCNC(=N)N)NC(=O)[C@H](CCCNC(=N)N)NC(=O)[C@H]3CCCN3C(=O)CNC1=O)C(=O)N[C@@H](Cc1ccc(O)cc1)C(=O)N[C@@H](CCC(N)=O)C(=O)N[C@@H](CCCCN)C(=O)N1CCC[C@@H]1C(=O)N1CCC[C@H]1C(=O)N[C@@H](CO)C(=O)N[C@@H](CCCNC(=N)N)C(=O)N[C@@H](CCCNC(N)=O)C(=O)N2 [Ex. 89] (cyclo(SR[Cit]CRG[dP]RR[2Nal]CYQK[dP]P); disulfide 4-11) | 0 | 50000 | 0.5 |
| CC(C)[C@@H]1NC(=O)[C@@H]2CCCN2C(=O)[C@H]2CCCN2C(=O)[C@H](CCCCN)NC(=O)[C@H](CCC(N)=O)NC(=O)[C@H](Cc2ccc(O)cc2)NC(=O)[C@@H]2CSSC[C@H](NC(=O)[C@H](CCCNC(N)=O)NC(=O)[C@H](CCCNC(=N)N)NC1=O)C(=O)N[C@@H](CCCNC(=N)N)C(=O)NCC(=O)N1CCC[C@@H]1C(=O)N[C@@H](CCCNC(=N)N)C(=O)N[C@@H](CCCNC(=N)N)C(=O)N[C@@H](Cc1ccc3ccccc3c1)C(=O)N2 [Ex. 90] (cyclo(VR[Cit]CRG[dP]RR[2Nal]CYQK[dP]P); disulfide 4-11) | 0.1 | 57000 | 19.5 |
| CSCC[C@@H]1NC(=O)[C@@H]2CCCN2C(=O)[C@H]2CCCN2C(=O)[C@H](CCCCN)NC(=O)[C@H](CCC(N)=O)NC(=O)[C@H](Cc2ccc(O)cc2)NC(=O)[C@@H]2CSSC[C@H](NC(=O)[C@H](CCCNC(N)=O)NC(=O)[C@H](CCCNC(=N)N)NC1=O)C(=O)N[C@@H](CCCNC(=N)N)C(=O)NCC(=O)N1CCC[C@@H]1C(=O)N[C@@H](CCCNC(=N)N)C(=O)N[C@@H](CCCNC(=N)N)C(=O)N[C@@H](Cc1ccc3ccccc3c1)C(=O)N2 [Ex. 91] (cyclo(MR[Cit]CRG[dP]RR[2Nal]CYQK[dP]P); disulfide 4-11) | 0.2 | 48000 | 2.1 |
| N=C(N)NCCC[C@@H]1NC(=O)[C@@H]2CSSC[C@H](NC(=O)[C@H](Cc3ccc4ccccc4c3)NC(=O)[C@H](CCCNC(=N)N)NC(=O)[C@H](CCCNC(=N)N)NC(=O)[C@H]3CCCN3C(=O)CNC1=O)C(=O)N[C@@H](Cc1ccc(O)cc1)C(=O)N[C@@H](CCC(N)=O)C(=O)N[C@@H](CCCCN)C(=O)N1CCC[C@@H]1C(=O)N1CCC[C@H]1C(=O)N[C@@H](Cc1ccc(O)cc1)C(=O)N[C@@H](CCCNC(=N)N)C(=O)N[C@@H](CC(N)=O)C(=O)N2 [Ex. 92] (cyclo(YRNCRG[dP]RR[2Nal]CYQK[dP]P); disulfide 4-11) | 0.5 | 53000 | 1.1 |
| N=C(N)NCCC[C@@H]1NC(=O)[C@@H]2CSSC[C@H](NC(=O)[C@H](Cc3ccc4ccccc4c3)NC(=O)[C@H](CCCNC(=N)N)NC(=O)[C@H](CCCNC(=N)N)NC(=O)[C@H]3CCCN3C(=O)CNC1=O)C(=O)N[C@@H](Cc1ccc(O)cc1)C(=O)N[C@@H](CCC(N)=O)C(=O)N[C@@H](CCCCN)C(=O)N1CCC[C@@H]1C(=O)N1CCC[C@H]1C(=O)N[C@@H](Cc1ccc(O)cc1)C(=O)N[C@@H](CCCNC(=N)N)C(=O)N[C@@H](CC(=O)O)C(=O)N2 [Ex. 93] (cyclo(YRDCRG[dP]RR[2Nal]CYQK[dP]P); disulfide 4-11) | 0.2 | > 100000 | 4.3 |
| N=C(N)NCCC[C@@H]1NC(=O)[C@@H]2CSSC[C@H](NC(=O)[C@H](Cc3ccc4ccccc4c3)NC(=O)[C@H](CCCNC(=N)N)NC(=O)[C@H](CCCNC(=N)N)NC(=O)[C@H]3CCCN3C(=O)CNC1=O)C(=O)N[C@@H](Cc1ccc(O)cc1)C(=O)N[C@@H](CCC(N)=O)C(=O)N[C@@H](CCCCN)C(=O)N1CCC[C@@H]1C(=O)N1CCC[C@H]1C(=O)N[C@@H](Cc1ccc(O)cc1)C(=O)N[C@@H](CCCNC(=N)N)C(=O)N[C@@H](CCCCN)C(=O)N2 [Ex. 94] (cyclo(YRKCRG[dP]RR[2Nal]CYQK[dP]P); disulfide 4-11) | 0.2 | 45000 | 2.5 |
| C[C@@H]1NC(=O)[C@H](CCCNC(=N)N)NC(=O)[C@H](Cc2ccc(O)cc2)NC(=O)[C@@H]2CCCN2C(=O)[C@H]2CCCN2C(=O)[C@H](CCCCN)NC(=O)[C@H](CCC(N)=O)NC(=O)[C@H](Cc2ccc(O)cc2)NC(=O)[C@@H]2CSSC[C@H](NC1=O)C(=O)N[C@@H](CCCNC(=N)N)C(=O)NCC(=O)N1CCC[C@@H]1C(=O)N[C@@H](CCCNC(=N)N)C(=O)N[C@@H](CCCNC(=N)N)C(=O)N[C@@H](Cc1ccc3ccccc3c1)C(=O)N2 [Ex. 95] (cyclo(YRACRG[dP]RR[2Nal]CYQK[dP]P); disulfide 4-11) | 0.1 | 41000 | 2.9 |
| N=C(N)NCCC[C@@H]1NC(=O)[C@@H]2CSSC[C@H](NC(=O)[C@H](Cc3ccc4ccccc4c3)NC(=O)[C@H](CCCNC(=N)N)NC(=O)[C@H](CCCNC(=N)N)NC(=O)[C@H]3CCCN3C(=O)CNC1=O)C(=O)N[C@@H](Cc1ccc(O)cc1)C(=O)N[C@@H](CCC(N)=O)C(=O)N[C@@H](CCCCN)C(=O)N1CCC[C@@H]1C(=O)N1CCC[C@H]1C(=O)N[C@@H](Cc1ccc(O)cc1)C(=O)N[C@@H](CCCNC(=N)N)C(=O)N[C@@H](CO)C(=O)N2 [Ex. 96] (cyclo(YRSCRG[dP]RR[2Nal]CYQK[dP]P); disulfide 4-11) | 1 | 69000 | 3 |
| CC(C)C[C@@H]1NC(=O)[C@H](CCCNC(=N)N)NC(=O)[C@H](Cc2ccc(O)cc2)NC(=O)[C@@H]2CCCN2C(=O)[C@H]2CCCN2C(=O)[C@H](CCCCN)NC(=O)[C@H](CCC(N)=O)NC(=O)[C@H](Cc2ccc(O)cc2)NC(=O)[C@@H]2CSSC[C@H](NC1=O)C(=O)N[C@@H](CCCNC(=N)N)C(=O)NCC(=O)N1CCC[C@@H]1C(=O)N[C@@H](CCCNC(=N)N)C(=O)N[C@@H](CCCNC(=N)N)C(=O)N[C@@H](Cc1ccc3ccccc3c1)C(=O)N2 [Ex. 97] (cyclo(YRLCRG[dP]RR[2Nal]CYQK[dP]P); disulfide 4-11) | 0.8 | 44000 | 4.3 |
| CC(C)[C@@H]1NC(=O)[C@H](CCCNC(=N)N)NC(=O)[C@H](Cc2ccc(O)cc2)NC(=O)[C@@H]2CCCN2C(=O)[C@H]2CCCN2C(=O)[C@H](CCCCN)NC(=O)[C@H](CCC(N)=O)NC(=O)[C@H](Cc2ccc(O)cc2)NC(=O)[C@@H]2CSSC[C@H](NC1=O)C(=O)N[C@@H](CCCNC(=N)N)C(=O)NCC(=O)N1CCC[C@@H]1C(=O)N[C@@H](CCCNC(=N)N)C(=O)N[C@@H](CCCNC(=N)N)C(=O)N[C@@H](Cc1ccc3ccccc3c1)C(=O)N2 [Ex. 98] (cyclo(YRVCRG[dP]RR[2Nal]CYQK[dP]P); disulfide 4-11) | 1 | 41000 | 3.9 |
| N=C(N)NCCC[C@@H]1NC(=O)[C@@H]2CSSC[C@H](NC(=O)[C@H](Cc3ccc4ccccc4c3)NC(=O)[C@H](CCCNC(=N)N)NC(=O)[C@H](CCCNC(=N)N)NC(=O)[C@H]3CCCN3C(=O)CNC1=O)C(=O)N[C@@H](Cc1ccc(O)cc1)C(=O)N[C@@H](CCC(N)=O)C(=O)N[C@@H](CCCCN)C(=O)N1CCC[C@@H]1C(=O)N1CCC[C@H]1C(=O)N[C@@H](Cc1ccc(O)cc1)C(=O)N[C@@H](CCCNC(=N)N)C(=O)N[C@@H](Cc1ccc(F)cc1)C(=O)N2 [Ex. 99] (cyclo(YR[Phe(4-F)]CRG[dP]RR[2Nal]CYQK[dP]P); disulfide 4-11) | 1.1 | 40000 | 4.2 |
| CSCC[C@@H]1NC(=O)[C@H](CCCNC(=N)N)NC(=O)[C@H](Cc2ccc(O)cc2)NC(=O)[C@@H]2CCCN2C(=O)[C@H]2CCCN2C(=O)[C@H](CCCCN)NC(=O)[C@H](CCC(N)=O)NC(=O)[C@H](Cc2ccc(O)cc2)NC(=O)[C@@H]2CSSC[C@H](NC1=O)C(=O)N[C@@H](CCCNC(=N)N)C(=O)NCC(=O)N1CCC[C@@H]1C(=O)N[C@@H](CCCNC(=N)N)C(=O)N[C@@H](CCCNC(=N)N)C(=O)N[C@@H](Cc1ccc3ccccc3c1)C(=O)N2 [Ex. 100] (cyclo(YRMCRG[dP]RR[2Nal]CYQK[dP]P); disulfide 4-11) | 0.8 | 43000 | 7 |
| N=C(N)NCCC[C@@H]1NC(=O)[C@@H]2CSSC[C@H](NC(=O)[C@H](Cc3ccc4ccccc4c3)NC(=O)[C@H](CCCNC(=N)N)NC(=O)[C@H](CCCNC(=N)N)NC(=O)[C@H]3CCCN3C(=O)CNC1=O)C(=O)N[C@@H](Cc1ccc(O)cc1)C(=O)N[C@@H](CCCNC(N)=O)C(=O)N[C@@H](CCC(=O)O)C(=O)N1CCC[C@@H]1C(=O)N1CCC[C@H]1C(=O)N[C@@H](Cc1ccc(O)cc1)C(=O)N[C@@H](CCCNC(=N)N)C(=O)N[C@@H](CCCNC(N)=O)C(=O)N2 [Ex. 103] (cyclo(YR[Cit]CRG[dP]RR[2Nal]CY[Cit]E[dP]P); disulfide 4-11) | 0.2 | 42000 | 18.3 |

— patent US8895695B2, “Template-fixed beta-hairpin peptidomimetics with CXCR4 antagonizing activity” (priority 2003, dated 2014)
